Test results: patent publication US20170027902A1, “Use of a Composition Comprising a Flavonol, A Flavonoid, and a Fatty Acid in the Treatment of Oxidative Injuries Due to Mitochondrial Dysfunction” (priority 2014, published 2017)

Experiments:
[1] = system: cortical neurons; assay: OGD, viable neurons counted by FACS (Annexin V / 7AAD); type: cell-based, mouse; details: 0.03 and 0.1 μg/ml (0.1 and 0.3 μM); 24 hrs pretreatment; 90 min OGD (vehicle approximately 45%)
Description: Embryonic day 16 timed pregnant CD1 out-bred mice were obtained from Charles River Laboratories (Charles River; QC, Canada). Primary cortical neuron cultures were prepared from cerebral cortices of wild type (WT) CD1 mouse embryos as described previously, with the following modifications. Pregnant CD1 females were heavily anaesthetized with isoflurane vapor (Benson Medical Industries, Inc., Markham, ON) before being euthanized by decapitation. The embryonic day 16 (E16) fetuses were immediately removed from the sacrificed pregnant females by cesarean section and placed in ice-cold Hank's Balanced Salt Solution (HBSS) (GIBCO; Invitrogen, Amarillo, Calif.). The meninges were removed from the brains and cortices were isolated under a dissecting microscope. […] The trypsin and inhibitor solutions were discarded and each cell pellet was suspended in 1 ml of cortical neuron plating medium (Neurobasal medium (Invitrogen, Amarillo, Calif.) with 10% fetal bovine serum (GIBCO; Invitrogen; Amarillo, Calif.), 2% B27 supplement, 1 mM L-glutamine, and 1% Gentamycin (Invitrogen; Amarillo, Calif.), triturated 10 times and counted using trypan blue exclusion and a hemocytometer. Cortical neurons were plated in 96-well plates (Corning; Lowell, Mass.) that were pre-coated with poly-D-lysine (PDL; Sigma-Aldrich; Oakville, ON) according to the procedure described by the manufacturer. […]

[2] = system: primary cultures of mouse cortical neurons; assay: Mitochondrial respiration (Seahorse XF24, oxygen consumption rate); type: cell-based; details: 0.1 μM, FCCP 2 μM
Description: The effects of E, Q and E+Q on key parameters of mitochondrial respiration in primary cultures of mouse cortical neurons were measured using a Seahorse Bioscience XF24 Extracellular Flux Analyzer XF24 instrument. Oxygen consumption rate (OCR) in fmol/cell were normalized by counting viable cortical neurons at the end of each experiment. A seeding density of 80,000 neurons/well was sufficient to obtain a measurable basal OCR (4-6 fmol/min/cell) permitting both OCR induction and inhibition to be assessed. Mitochondrial function in cortical neurons was measured by the sequential injection of oligomycin (2 μM), FCCP (2 μM), rotenone (300 nM) and antimycin (5 μM) to control and OGD-exposed cultures treated with various concentrations of E, Q or E+Q (0.1 μM).

SMILES | neuronal survival (viable neurons relative to control, no OGD) [1] | loss of spare respiratory capacity (SRC) after OGD [2]
Oc1cc(O)c2c(c1)O[C@H](c1ccc(O)c(O)c1)[C@H](O)C2 [E, (2R,3R)-2-(3,4-dihydroxyphenyl)-3,4-dihydro-2H-chromene-3,5,7-triol] | 55% | only partially reversed
O=c1c(O)c(-c2ccc(O)c(O)c2)oc2cc(O)cc(O)c12 [Q] | 55% | only partially reversed
